Like-named read-outs stand apart in the source and are kept apart here.
Assays:
male C57Bl/6N mice = assay: In vivo functional response to muscle injury (eccentric contraction-induced muscle fatigue); set-up: species or system mouse; conditions: FIG. 1
Excerpt: (§1) Under anesthesia, the right hind limb of a mouse is restrained at the knee and the foot attached to a motorized footplate/force transducer. Needle electrodes are inserted into the upper limb, either side of the sciatic nerve and a current sufficient to elicit a maximal muscle contraction is applied. Muscle tension is produced by moving the footplate to lengthen the plantarflexor muscles while the limb is under maximal stimulation. This is repeated 60 times to fatigue the muscles of the lower limb. Anesthesia, limb immobilization and limb stimulation are then repeated at regular intervals to measure maximal isometric force in the recovering limb. 7 to 9 animals are tested for each test condition.

mdx mice = assay: Functional repair following limb muscle injury in mdx mice (FIG. 2); type: in vivo
[1] = molecular target: T1, haematopoietic prostaglandin D synthase (H-PGDS) (Homo sapiens, UniProt O60760); assay: H-PGDS RapidFire High Throughput Mass Spectrometry Assay; type: biochemical
T1 construct: Full length human H-PGDS cDNA (Invitrogen Ultimate ORF IOH13026) was amplified by PCR; made in house; host or cells: E. coli BL21 (DE3*), vector pET22b+
T1 sequence (O60760 whole entry): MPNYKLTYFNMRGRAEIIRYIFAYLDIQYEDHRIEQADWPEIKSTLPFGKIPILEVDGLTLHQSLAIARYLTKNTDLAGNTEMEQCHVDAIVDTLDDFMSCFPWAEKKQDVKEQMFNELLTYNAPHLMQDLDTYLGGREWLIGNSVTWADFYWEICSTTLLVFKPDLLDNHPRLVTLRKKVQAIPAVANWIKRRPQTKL
Procedure, shortened: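 PGH2 (~10 μM burst) generated in situ from arachidonic acid by FLAG-tagged human COX-2 (Sf9-expressed), then converted to PGD2 by full-length human His-tagged H-PGDS from E. coli. PGD2 and PGF2α (substrate surrogate) quantified by RapidFire SPE-triple quadrupole MS; percent conversion calculated.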

male C57BL/mdx mice = assay: In vivo functional response to eccentric contraction-induced muscle damage in mdx mice (Duchenne Muscular Dystrophy model); set-up: species or system mouse; conditions: 30 mg/kg BID; 8 month-old male C57BL/mdx mice; FIG. 2
Excerpt: as §1
The force deficit and recovery kinetics following eccentric contraction-induced muscle damage was also evaluated in middle-aged (8 month-old) male C57BL/mdx mice, a preclinical model of Duchenne Muscular Dystrophy. In this dystrophin-null background, the protocol elicited a greater functional deficit (˜75%) and a protracted recovery interval, as shown in the eccentric vehicle controls.

[2] = H-PGDS RapidFire MS assay, mean pIC50, read-out: Potency Range (mean pIC50) (converted)

In the case of `CC(C)(O)[C@H]1CC[C@H](NC(=O)c2cnc3cc(OC(F)F)ccc3c2)CC1` [Example 6, 7-(Difluoromethoxy)-N-((trans)-4-(2-hydroxypropan-2-yl)cyclohexyl)quinoline-3-carboxamide], the “kinetics of recovery of maximal isometric force” value (male C57Bl/6N mice; PO 1, 3 and 10 mg/kg BID beginning 10 min prior to eccentric contraction challenge) is reported as “acceleration in the kinetics of recovery” and the “initial magnitude of the injury (isometric limb force 24-hours following protocol initiation)” value (male C57Bl/6N mice; PO 3 and 10 mg/kg BID) is reported as “reduced the initial magnitude of the injury”.
In the case of `O=C(N[C@H]1CCNC1=O)c1cnc2cc(OC(F)F)c(F)cc2c1` [Example 48, (S)-7-(Difluoromethoxy)-6-fluoro-N-(2-oxopyrrolidin-3-yl)quinoline-3-carboxamide], the “protection and acceleration of functional repair dose response curves of PGDS Inhibition” value (mdx mice) is reported as “protection and acceleration of functional repair”, the IC50 [1, 2] is reported as 10 to 79.4 nM and the “force deficit at 24-hours” value (male C57BL/mdx mice) is reported as “significantly blunted the force deficit at 24-hours”. The “rate and extent of functional recovery” value (male C57BL/mdx mice) was “improved both the rate and extent of functional recovery”.
`CC(C)(O)C(=O)N1CC(NC(=O)c2cnc3cc(OC(F)F)c(Cl)cc3c2)C1` [Example 221, 6-Chloro-7-(difluoromethoxy)-N-(1-(2-hydroxy-2-methylpropanoyl)azetidin-3-yl)quinoline-3-carboxamide] gave an IC50 [1, 2] of 100 to 1000 nM.
Work on `CC(C)(O)[C@H]1CC[C@H](NC(=O)c2cnc3cc(C4CC4(F)F)c(Cl)cc3c2)CC1` (stereo partly drawn) [Example 222, 6-Chloro-7-(2,2-difluorocyclopropyl)-N-((trans)-4-(2-hydroxypropan-2-yl)cyclohexyl)quinoline-3-carboxamide] yielded an IC50 [1, 2] of 10 to 79.4 nM and an IC50 ([1]; in at least one experimental run, read-out: H-PGDS pIC50 value (converted)) of 63.1 nM.
`O=C(N[C@H]1CC[C@](O)(C(F)(F)F)CC1)c1cnc2cc(OC(F)F)c(Cl)cc2c1` [Example 223, 6-Chloro-7-(difluoromethoxy)-N-((cis)-4-hydroxy-4-(trifluoromethyl)cyclohexyl)quinoline-3-carboxamide] showed an IC50 [1, 2] of 10 to 79.4 nM.
Molecule `CC(C)(O)C(=O)N1CCN(NC(=O)c2cnc3cc(OC(F)F)c(Cl)cc3c2)CC1` [Example 224, 6-Chloro-7-(difluoromethoxy)-N-(4-(2-hydroxy-2-methylpropanoyl)piperazin-1-yl)quinoline-3-carboxamide] has an IC50 [1, 2] of 10 to 79.4 nM.
`C=Cc1cc2ncc(C(=O)N[C@H]3CC[C@H](C(C)(C)O)CC3)cc2cc1Cl` [Example 225, 6-Chloro-N-((trans)-4-(2-hydroxypropan-2-yl)cyclohexyl)-7-vinylquinoline-3-carboxamide] gave an IC50 [1, 2] of 10 to 79.4 nM.
`CC(C)(O)C(=O)N[C@H]1C[C@H](NC(=O)c2cnc3cc(OC(F)F)c(Cl)cc3c2)C1` [Example 226, 6-Chloro-7-(difluoromethoxy)-N-(trans-3-(2-hydroxy-2-methylpropanamido)cyclobutyl)quinoline-3-carboxamide] was tested, and the IC50 [1, 2] was 10 to 79.4 nM.
With `O=C(N[C@H]1CC[C@@](O)(C(F)(F)F)CC1)c1cnc2cc(OC(F)F)c(Cl)cc2c1` [Example 227, 6-Chloro-7-(difluoromethoxy)-N-((trans)-4-hydroxy-4-(trifluoromethyl)cyclohexyl)quinoline-3-carboxamide] the IC50 [1, 2] was 10 to 79.4 nM.
Molecule `Cc1cc2cc(C(=O)N[C@H]3CC[C@H](C(C)(C)O)CC3)cnc2c(Cl)c1OC(F)F` [Example 228, 8-Chloro-7-(difluoromethoxy)-N-((trans)-4-(2-hydroxypropan-2-yl)cyclohexyl)-6-methylquinoline-3-carboxamide] has an IC50 [1, 2] of 10 to 79.4 nM.
With `Cc1c(OC(F)F)c(Cl)cc2cc(C(=O)N[C@H]3CC[C@H](C(C)(C)O)CC3)cnc12` [Example 229, 6-Chloro-7-(difluoromethoxy)-N-((trans)-4-(2-hydroxypropan-2-yl)cyclohexyl)-8-methylquinoline-3-carboxamide] the IC50 [1, 2] was 10 to 79.4 nM.
With `CC(C)(F)c1cc2ncc(C(=O)N[C@H]3CC[C@H](C(C)(C)O)CC3)cc2cc1Cl` [Example 230, 6-Chloro-7-(2-fluoropropan-2-yl)-N-((trans)-4-(2-hydroxypropan-2-yl)cyclohexyl)quinoline-3-carboxamide] the IC50 [1, 2] was under 10 nM.
`CC(F)(F)c1cc2ncc(C(=O)N[C@H]3CC[C@H](C(C)(C)O)CC3)cc2cc1Cl` [Example 231, 6-Chloro-7-(1,1-difluoroethyl)-N-((trans)-4-(2-hydroxypropan-2-yl)cyclohexyl)quinoline-3-carboxamide] showed an IC50 [1, 2] of under 10 nM.
With `O=C(N[C@H]1C[C@](O)(C(F)(F)F)C1)c1cnc2cc(OC(F)F)c(Cl)cc2c1` [Example 232, 6-Chloro-7-(difluoromethoxy)-N-((1s,3s)-3-hydroxy-3-(trifluoromethyl)cyclobutyl)quinoline-3-carboxamide] the IC50 [1, 2] was under 10 nM.
Work on `O=C(N[C@H]1CC[C@](O)(C(F)F)CC1)c1cnc2cc(OC(F)F)c(Cl)cc2c1` [Example 233, 6-Chloro-7-(difluoromethoxy)-N-((1s,4s)-4-(difluoromethyl)-4-hydroxycyclohexyl)quinoline-3-carboxamide] yielded an IC50 [1, 2] of 10 to 79.4 nM.
`O=C(N[C@H]1CC[C@@](O)(C(F)F)CC1)c1cnc2cc(OC(F)F)c(Cl)cc2c1` [Example 234, 6-Chloro-7-(difluoromethoxy)-N-((1r,4r)-4-(difluoromethyl)-4-hydroxycyclohexyl)quinoline-3-carboxamide] gave an IC50 [1, 2] of 10 to 79.4 nM.
`CC(C)(O)[C@H]1CC[C@H](NC(=O)c2cnc3c(Cl)c(OC(F)F)c(F)cc3c2)CC1` [Example 235, 8-Chloro-7-(difluoromethoxy)-6-fluoro-N-(trans-4-(2-hydroxypropan-2-yl)cyclohexyl)quinoline-3-carboxamide] was tested, and the IC50 [1, 2] was 10 to 79.4 nM.
With `CC(C)(O)[C@H]1CC[C@H](NC(=O)c2cnc3c(F)c(OC(F)F)c(Cl)cc3c2)CC1` [Example 236, 6-Chloro-7-(difluoromethoxy)-8-fluoro-N-(trans-4-(2-hydroxypropan-2-yl)cyclohexyl)quinoline-3-carboxamide] the IC50 [1, 2] was under 10 nM.
In the case of `O=C(NC1CCc2ccccc2NC1=O)c1cnc2cc(OC(F)F)c(Cl)cc2c1` (stereo not drawn) [Example 237, 6-Chloro-7-(difluoromethoxy)-N-(2-oxo-2,3,4,5-tetrahydro-1H-benzo[b]azepin-3-yl)quinoline-3-carboxamide], the IC50 [1, 2] is reported as under 10 nM.

Source: patent US20210238162A1, “CHEMICAL COMPOUNDS” (GlaxoSmithKline Intellectual Property Development Limited, priority 2015, published 2021)
